Reference: ChEMBL document CHEMBL1201862, “PubChem BioAssay data set” (2004)
The source made the active and inactive calls.

Key:
[1] = biological target: DNA dC->dU-editing enzyme APOBEC-3A (Homo sapiens, UniProt P31941); assay: APOBEC3A DNA deaminase inhibitors, dose response, biochemical (AID 504722); type: functional
[2] = biological target: DNA dC->dU-editing enzyme APOBEC-3G (Homo sapiens, UniProt Q9HC16); assay: Dose Response confirmation of small molecule APOBEC3G DNA Deaminase Inhibitors via a fluorescence-based single-stranded DNA deaminase assay. [Related pubchem assays (depositor defined):AID493012, AID493028]; type: functional
[3] = cytotoxicity in HPDE-C7 cells, cell-based, fluorescence, HTS (AID 430); type: functional; conditions: Homo sapiens
[4] = cytotoxicity in KRAS-transformed pancreatic duct cells, primary screen, cell-based, fluorescence, HTS (AID 431); type: functional; conditions: Homo sapiens;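 also: cell line used: HPDE-C7K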
HEK293 = assay: inhibitors of LMP1-driven NF-kB reporter, dose response, cell-based, HEK293, luciferase, cherry-pick (AID 588343); type: functional; conditions: Homo sapiens
INS1 = assay: beta cell apoptosis inhibitors, cytokine rescue, dose response, luminescence, retest (AID 449756); type: functional, cell-based; conditions: Rattus norvegicus;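 also: cell death triggered by IL-1 beta plus TNF-alpha plus IFN-gamma mixture; protective hits raise ATP signal compared with cytokine alone wells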
[5] = Shn3 3'UTR reporter inhibitors, dose response, cell-based, Clone20 osteoblasts, firefly luciferase, cherry-picked (AID 624132); type: functional;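 also: firefly luciferase luminescence from reporter carrying the Shn3 3'UTR in osteoblasts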
[6] = HepG2 cell cytotoxicity, dose response, cytotoxicity control for Shn3 inhibitor project, CellTiter-Glo, cherry-picked (AID 624134); type: functional, cell-based
[7] = control 3'UTR Renilla luciferase suppression, dose response, counter-screen for Shn3 inhibitor project, cell-based, Clone20-Shn3RL, cherry-picked (AID 624133); type: functional
Fatty acid synthase [8] = biological target: T1, Fatty acid synthase (Homo sapiens, UniProt P49327); assay: FAS thioesterase domain inhibitors, dose response, biochemical, endpoint fluorescence intensity, uHTS hits (AID 624327); type: functional;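 also: fluorescence from hydrolysis of an O-methyl fluorescein acyl ester substrate by the enzyme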
Fatty acid synthase [9] = biological target: T1, Fatty acid synthase; assay: FAS thioesterase domain inhibitors, dose response, biochemical, kinetic fluorescence intensity (AID 624326); type: functional;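 also: rate of fluorescence rise from hydrolysis of a fluorogenic O-methyl fluorescein ester substrate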
[10] = biological target: T2, Low molecular weight phosphotyrosine protein phosphatase (Homo sapiens, UniProt P24666); type: functional; conditions: read-out: IC50_Mean;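 also: Dose-response confirmation assay measuring inhibition of LMPTP enzyme activity by fluorescence intensity read-out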
T2 sequence (P24666 whole entry): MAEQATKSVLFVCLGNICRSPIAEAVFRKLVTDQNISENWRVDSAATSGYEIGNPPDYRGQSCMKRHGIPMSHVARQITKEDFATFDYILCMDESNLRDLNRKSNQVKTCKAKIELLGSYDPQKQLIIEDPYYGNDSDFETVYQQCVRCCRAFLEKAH

[11] = biological target: T3, Histone-lysine N-methyltransferase NSD2 (Homo sapiens, UniProt O96028); type: biochemical
T3 sequence (O96028 whole entry): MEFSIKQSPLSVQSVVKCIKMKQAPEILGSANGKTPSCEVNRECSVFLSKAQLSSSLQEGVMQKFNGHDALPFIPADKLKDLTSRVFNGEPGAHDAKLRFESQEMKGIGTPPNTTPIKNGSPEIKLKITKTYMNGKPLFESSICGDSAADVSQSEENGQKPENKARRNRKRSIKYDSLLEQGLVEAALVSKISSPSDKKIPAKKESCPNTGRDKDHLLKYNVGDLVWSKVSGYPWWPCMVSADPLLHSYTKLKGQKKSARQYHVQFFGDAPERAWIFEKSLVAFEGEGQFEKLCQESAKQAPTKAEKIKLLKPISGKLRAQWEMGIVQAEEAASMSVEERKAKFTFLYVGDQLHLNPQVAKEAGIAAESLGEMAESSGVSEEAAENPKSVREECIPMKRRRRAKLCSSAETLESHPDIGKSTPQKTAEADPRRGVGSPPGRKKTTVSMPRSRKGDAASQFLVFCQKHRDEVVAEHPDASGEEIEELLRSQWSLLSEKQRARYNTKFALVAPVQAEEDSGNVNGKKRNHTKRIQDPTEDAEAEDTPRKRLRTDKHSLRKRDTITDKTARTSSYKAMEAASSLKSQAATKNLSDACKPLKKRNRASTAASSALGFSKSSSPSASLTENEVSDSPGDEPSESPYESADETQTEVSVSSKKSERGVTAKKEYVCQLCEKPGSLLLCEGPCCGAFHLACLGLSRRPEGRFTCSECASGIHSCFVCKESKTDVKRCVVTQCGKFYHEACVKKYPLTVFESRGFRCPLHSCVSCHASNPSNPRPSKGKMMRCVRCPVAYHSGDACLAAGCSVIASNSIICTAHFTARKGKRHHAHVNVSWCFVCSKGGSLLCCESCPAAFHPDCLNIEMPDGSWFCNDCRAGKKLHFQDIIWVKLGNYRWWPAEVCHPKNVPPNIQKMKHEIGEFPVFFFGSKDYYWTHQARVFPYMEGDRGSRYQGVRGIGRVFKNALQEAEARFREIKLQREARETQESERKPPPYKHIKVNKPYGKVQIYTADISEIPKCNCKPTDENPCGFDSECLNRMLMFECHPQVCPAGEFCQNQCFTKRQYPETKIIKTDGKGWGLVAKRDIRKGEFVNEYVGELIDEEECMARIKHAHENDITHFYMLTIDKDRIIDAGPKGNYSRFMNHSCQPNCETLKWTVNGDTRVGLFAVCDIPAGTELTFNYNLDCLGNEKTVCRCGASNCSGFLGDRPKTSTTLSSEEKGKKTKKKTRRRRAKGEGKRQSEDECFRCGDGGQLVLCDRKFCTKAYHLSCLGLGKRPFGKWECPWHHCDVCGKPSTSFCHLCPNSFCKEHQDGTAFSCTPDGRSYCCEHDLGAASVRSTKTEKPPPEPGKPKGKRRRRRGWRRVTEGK

[12] = biological target: 26S proteasome non-ATPase regulatory subunit 14 (Homo sapiens, UniProt O00487); assay: inhibition of proteasome subunit RPN11 – biochemical, fluorescence polarization, uHTS hits, confirmation (AID 602368); type: functional
[13] = biological target: 72 kDa type IV collagenase (Homo sapiens, UniProt P08253); assay: Dose Response validation of uHTS RPN11 inhibitor hits using a MMP-2 Fluorescence assay.; type: functional
Prothrombin = Prothrombin (Bos taurus, UniProt P00735); assay: thrombin inhibition, dose response, biochemical, fluorescence polarization, uHTS hits (AID 602369); type: functional
[14] = Luminescence Cell-Based Dose Response to Identify Activators of 5'UTR Stem-Loop Driven Prion Protein mRNA Translation in H4-C Neuroglioblastoma Cells. [Related pubchem assays: 1829 (Project Summary), 1814 (Primary HTS)]; type: functional
[15] = Luminescence Cell-Based Dose Response HTS to Identify Activators of Luciferase Translation or Activity in H4 […] Cells. [Related pubchem assays: 1829 (Project Summary), 1814 (Primary HTS)]; type: functional
H4 = assay: Luminescence Cell-Based Dose Response HTS to Identify Activators of 5'UTR Stem-Loop Driven Prion Protein mRNA Translation in H4 Neuroglioblastoma Cells. [Related pubchem assays: 1829 (Project Summary), 1814 (Primary HTS)]; type: functional; conditions: Homo sapiens
[16] = Luminescence Cell-Based Dose Response to Identify Activators of Luciferase Translation or Activity in H4-C Neuroglioblastoma Cells. [Related pubchem assays: 1829 (Project Summary), 1814 (Primary HTS)]; type: functional
[17] = Luminescence Cell-Based Dose Confirmation to Identify Activators of 5'UTR Stem-Loop Driven Alpha-Synuclein mRNA Translation in H4 Neuroglioblastoma Cells. [Related pubchem assays: 1829 (Project Summary), 1814 (Primary HTS)]; type: functional
[18] = inhibitors of firefly luciferase expression or activity, dose response, H4 neuroglioma cells, luminescence (AID 1990); type: functional, cell-based
[19] = Luminescence Cell-Based Dose Response HTS to Identify Inhibitors of 5'UTR Stem-Loop Driven Prion Protein mRNA Translation in H4 Neuroglioblastoma Cells. [Related pubchem assays: 1827 (Project Summary), 1813 (Primary HTS)]; type: functional
[20] = inhibitors of SNCA 5'UTR-driven reporter translation, confirmation, H4 neuroglioma cells, luminescence (AID 1988); type: functional, cell-based
[21] = growth suppression of PTEN-null colon cells, dose response, cell-based, HCT116 PTEN knockout (AID 1047); type: functional;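 also: HCT116 colon tumor cells with PTEN knocked out; cells exposed to compound for 60 hours before readout; potency for loss of cell viability measured by luminescence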
[22] = growth suppression of beta-catenin-knockout colon cells, dose response, cell-based, HCT116, human colon tumor (AID 1045); type: functional;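 also: HCT116 colon tumor cells with beta catenin knocked out; cells exposed to compound for 60 hours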
[23] = biological target: Induced myeloid leukemia cell differentiation protein Mcl-1 (Homo sapiens, UniProt Q07820); type: functional
[24] = Luminescence Cell-Based Dose Confirmation HTS to Identify Activators of 5'UTR Stem-Loop Driven Alpha-Synuclein mRNA Translation in H4 Neuroglioblastoma Cells. [Related pubchem assays: 1829 (Project Summary), 1814 (Primary HTS)]; type: functional

T1 sequence (P49327 whole entry, the tested form may be a part): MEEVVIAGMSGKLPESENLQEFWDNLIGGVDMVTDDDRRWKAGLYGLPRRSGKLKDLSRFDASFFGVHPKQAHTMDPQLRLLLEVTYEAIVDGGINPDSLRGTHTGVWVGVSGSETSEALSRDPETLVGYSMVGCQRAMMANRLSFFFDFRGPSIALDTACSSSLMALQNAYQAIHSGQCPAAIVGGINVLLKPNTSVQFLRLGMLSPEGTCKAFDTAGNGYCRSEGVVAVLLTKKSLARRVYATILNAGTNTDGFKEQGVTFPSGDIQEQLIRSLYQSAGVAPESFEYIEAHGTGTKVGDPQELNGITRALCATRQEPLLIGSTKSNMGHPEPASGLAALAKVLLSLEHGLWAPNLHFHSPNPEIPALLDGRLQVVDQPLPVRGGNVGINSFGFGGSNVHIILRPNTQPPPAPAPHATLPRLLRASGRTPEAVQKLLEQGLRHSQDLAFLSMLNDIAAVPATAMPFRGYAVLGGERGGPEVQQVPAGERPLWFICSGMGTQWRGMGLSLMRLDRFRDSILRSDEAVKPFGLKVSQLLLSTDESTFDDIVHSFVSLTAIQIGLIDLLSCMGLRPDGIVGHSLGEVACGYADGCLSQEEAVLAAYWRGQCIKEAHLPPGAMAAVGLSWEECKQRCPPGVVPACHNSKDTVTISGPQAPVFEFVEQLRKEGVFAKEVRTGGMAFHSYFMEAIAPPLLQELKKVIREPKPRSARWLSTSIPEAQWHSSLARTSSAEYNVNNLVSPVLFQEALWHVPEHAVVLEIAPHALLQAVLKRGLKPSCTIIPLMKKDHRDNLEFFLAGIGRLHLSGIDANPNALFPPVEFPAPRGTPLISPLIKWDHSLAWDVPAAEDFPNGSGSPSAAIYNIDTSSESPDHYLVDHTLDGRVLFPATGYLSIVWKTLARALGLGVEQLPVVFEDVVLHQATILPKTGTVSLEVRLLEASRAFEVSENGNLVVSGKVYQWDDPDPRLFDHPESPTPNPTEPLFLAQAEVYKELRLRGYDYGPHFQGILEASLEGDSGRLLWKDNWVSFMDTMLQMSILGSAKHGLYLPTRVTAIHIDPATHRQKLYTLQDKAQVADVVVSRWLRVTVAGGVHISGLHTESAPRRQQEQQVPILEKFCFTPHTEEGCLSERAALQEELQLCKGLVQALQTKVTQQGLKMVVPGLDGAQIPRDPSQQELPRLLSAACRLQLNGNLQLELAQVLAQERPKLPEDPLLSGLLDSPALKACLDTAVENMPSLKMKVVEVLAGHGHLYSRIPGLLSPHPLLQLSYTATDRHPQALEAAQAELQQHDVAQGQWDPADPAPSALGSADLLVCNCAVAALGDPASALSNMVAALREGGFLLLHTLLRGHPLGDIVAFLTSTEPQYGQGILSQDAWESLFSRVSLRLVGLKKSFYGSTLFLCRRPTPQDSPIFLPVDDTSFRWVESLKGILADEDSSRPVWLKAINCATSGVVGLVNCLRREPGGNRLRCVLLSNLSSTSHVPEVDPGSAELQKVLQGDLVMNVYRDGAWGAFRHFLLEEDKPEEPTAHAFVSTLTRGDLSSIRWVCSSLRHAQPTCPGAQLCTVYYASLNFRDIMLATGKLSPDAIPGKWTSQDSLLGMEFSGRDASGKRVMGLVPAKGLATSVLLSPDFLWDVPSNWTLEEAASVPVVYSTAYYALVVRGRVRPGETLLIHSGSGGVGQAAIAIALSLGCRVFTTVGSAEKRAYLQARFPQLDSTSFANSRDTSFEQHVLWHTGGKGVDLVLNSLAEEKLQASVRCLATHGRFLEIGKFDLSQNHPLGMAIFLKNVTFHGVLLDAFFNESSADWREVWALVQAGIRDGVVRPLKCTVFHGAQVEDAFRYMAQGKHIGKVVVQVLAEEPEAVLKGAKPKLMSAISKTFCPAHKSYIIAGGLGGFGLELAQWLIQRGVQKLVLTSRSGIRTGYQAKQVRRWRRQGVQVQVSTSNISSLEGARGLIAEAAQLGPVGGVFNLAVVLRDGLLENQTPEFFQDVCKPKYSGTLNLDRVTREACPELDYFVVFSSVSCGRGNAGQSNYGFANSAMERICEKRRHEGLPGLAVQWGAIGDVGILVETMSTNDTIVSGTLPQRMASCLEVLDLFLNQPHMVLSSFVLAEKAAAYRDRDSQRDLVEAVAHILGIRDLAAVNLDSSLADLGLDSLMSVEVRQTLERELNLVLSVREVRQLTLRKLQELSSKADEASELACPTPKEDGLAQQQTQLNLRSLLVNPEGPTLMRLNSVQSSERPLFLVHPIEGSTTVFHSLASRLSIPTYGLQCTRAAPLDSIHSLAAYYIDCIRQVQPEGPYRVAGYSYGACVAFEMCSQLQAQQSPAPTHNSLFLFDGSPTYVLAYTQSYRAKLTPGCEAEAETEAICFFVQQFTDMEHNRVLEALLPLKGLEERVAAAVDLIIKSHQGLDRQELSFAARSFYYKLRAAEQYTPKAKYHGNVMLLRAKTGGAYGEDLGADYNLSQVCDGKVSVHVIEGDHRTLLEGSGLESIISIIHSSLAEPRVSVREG
Chain of 26S proteasome non-ATPase regulatory subunit 14 (O00487 whole entry): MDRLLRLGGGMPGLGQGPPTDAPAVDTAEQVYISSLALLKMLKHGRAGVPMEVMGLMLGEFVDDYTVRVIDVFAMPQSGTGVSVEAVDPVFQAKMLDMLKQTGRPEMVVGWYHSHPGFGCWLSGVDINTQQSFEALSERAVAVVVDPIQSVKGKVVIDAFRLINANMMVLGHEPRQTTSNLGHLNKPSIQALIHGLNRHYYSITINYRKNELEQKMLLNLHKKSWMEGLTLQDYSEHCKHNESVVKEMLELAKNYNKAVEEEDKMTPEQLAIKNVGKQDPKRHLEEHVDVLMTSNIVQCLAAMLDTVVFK
Chain of 72 kDa type IV collagenase (P08253 whole entry): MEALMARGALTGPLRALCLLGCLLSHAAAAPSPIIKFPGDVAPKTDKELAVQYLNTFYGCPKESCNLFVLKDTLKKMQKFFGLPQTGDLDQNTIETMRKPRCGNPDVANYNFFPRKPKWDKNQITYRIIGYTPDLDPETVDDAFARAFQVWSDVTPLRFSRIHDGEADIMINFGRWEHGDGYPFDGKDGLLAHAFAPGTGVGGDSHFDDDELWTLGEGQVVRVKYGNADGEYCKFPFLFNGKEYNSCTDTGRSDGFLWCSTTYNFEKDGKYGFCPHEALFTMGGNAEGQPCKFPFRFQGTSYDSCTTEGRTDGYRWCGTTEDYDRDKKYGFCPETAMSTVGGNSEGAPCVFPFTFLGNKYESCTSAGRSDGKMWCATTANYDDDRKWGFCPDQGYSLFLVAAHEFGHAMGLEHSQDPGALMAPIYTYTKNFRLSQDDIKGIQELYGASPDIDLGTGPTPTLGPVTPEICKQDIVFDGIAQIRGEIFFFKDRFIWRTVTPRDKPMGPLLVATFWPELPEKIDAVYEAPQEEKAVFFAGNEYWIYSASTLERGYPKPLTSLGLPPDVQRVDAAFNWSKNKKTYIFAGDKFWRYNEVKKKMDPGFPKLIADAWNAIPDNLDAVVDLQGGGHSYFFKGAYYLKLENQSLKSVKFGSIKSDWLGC
Chain of DNA dC->dU-editing enzyme APOBEC-3G (Q9HC16 whole entry): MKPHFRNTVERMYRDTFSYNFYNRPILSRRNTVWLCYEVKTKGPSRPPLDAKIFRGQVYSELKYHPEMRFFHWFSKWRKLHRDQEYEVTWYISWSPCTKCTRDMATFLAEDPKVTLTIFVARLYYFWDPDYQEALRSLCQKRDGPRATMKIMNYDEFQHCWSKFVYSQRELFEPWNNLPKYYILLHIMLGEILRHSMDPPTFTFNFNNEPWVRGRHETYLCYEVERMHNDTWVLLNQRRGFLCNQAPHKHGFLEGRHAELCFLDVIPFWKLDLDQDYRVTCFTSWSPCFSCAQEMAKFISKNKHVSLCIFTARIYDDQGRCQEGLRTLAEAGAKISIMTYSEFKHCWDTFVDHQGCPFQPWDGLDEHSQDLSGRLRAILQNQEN
Chain of DNA dC->dU-editing enzyme APOBEC-3A (P31941 whole entry): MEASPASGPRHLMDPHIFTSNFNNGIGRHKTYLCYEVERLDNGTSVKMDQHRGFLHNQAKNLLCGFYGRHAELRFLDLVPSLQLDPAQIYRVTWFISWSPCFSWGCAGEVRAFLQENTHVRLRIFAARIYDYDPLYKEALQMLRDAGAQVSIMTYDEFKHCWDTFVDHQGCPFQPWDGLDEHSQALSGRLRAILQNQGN
Chain of Induced myeloid leukemia cell differentiation protein Mcl-1 (Q07820 whole entry): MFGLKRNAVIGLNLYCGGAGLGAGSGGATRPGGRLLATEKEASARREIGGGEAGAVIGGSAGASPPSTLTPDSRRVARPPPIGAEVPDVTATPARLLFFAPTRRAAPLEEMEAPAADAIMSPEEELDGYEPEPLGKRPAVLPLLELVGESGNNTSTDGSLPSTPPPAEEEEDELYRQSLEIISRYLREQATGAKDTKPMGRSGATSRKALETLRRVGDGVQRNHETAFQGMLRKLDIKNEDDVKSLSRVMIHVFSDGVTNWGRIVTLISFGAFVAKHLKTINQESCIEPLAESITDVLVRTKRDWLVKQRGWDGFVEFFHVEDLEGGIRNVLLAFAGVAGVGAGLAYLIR

Nn1c(C2COc3ccccc3O2)n[nH]c1=S (stereo not given)
IC50 [1]: > 100 µM (inactive)
IC50 [2]: 5.09 µM (active)

O=C(c1ccccc1)C(CCC(CN1CCOCC1)C(=O)c1ccccc1)CN1CCOCC1 (stereo not given)
EC50 [3]: 11.1 µM (active)
EC50 [4]: 6.43 µM (active)
AC50 (HEK293): 6.35 µM (active)
AC50 (INS1): > 120 µM (inactive)
AC50 [5]: 12.8 µM (active)
AC50 [6]: 12.6 µM (active)
AC50 [7]: 11.9 µM (active)

CC(C)(C)c1ccc(C(=O)OCCNC(=O)c2c(Cl)nc3ccccn23)cc1
IC50 (Fatty acid synthase [8]): 5.51 µM (active)
IC50 (Fatty acid synthase [9]): 4.36 µM (active)

CCn1cc(C(=O)O)c(=O)c2cc(F)c(N3CCN(C(=S)NC(=O)c4ccccc4F)CC3)cc21
IC50 [10]: 6.64 µM (active)

CCC(C)NCCCOc1cc(Cl)ccc1Cl (stereo not given)
AC50 [11]: > 20 µM (inactive)

Cc1cc(N2CCN(c3nc(-c4ccc([N+](=O)[O-])cc4)cs3)CC2)c2ccccc2n1
IC50 [10]: 4.77 µM (active)

O=C(Nc1ccc2c(c1)CCC2)c1cc(S(=O)(=O)N2CCN(c3ccccc3)CC2)ccc1Cl
IC50 [12]: 50.9 µM (active)
IC50 [13]: > 100 µM (inactive)
IC50 (Prothrombin): 31.6 µM (active)

O=C(NC(=S)Nc1nc2c(s1)CCCC2)c1ccccc1
EC50 [14]: 0.313 µM (active)
EC50 [15]: 0.143 µM (active)
EC50 (H4): < 0.1 µM (active)
EC50 [16]: 0.341 µM (active)
EC50 [17]: 0.32 µM (active)

NC(=O)c1sc2nc3c(c(-c4cccs4)c2c1N)CCCC3
EC50 [18]: < 0.1 µM (active)
EC50 [19]: 0.125 µM (active)
EC50 [20]: 16.1 µM (active)
EC50 [21]: 36.5 µM (active)
EC50 [22]: 118 µM (active)

Cc1cc(C)cc(NC(=O)/C(C#N)=C/c2cn(CC(=O)NCc3ccco3)c3ccccc23)c1
EC50 [21]: 8.2 µM (active)
EC50 [22]: 10.6 µM (active)
AC50 (INS1): 3.92 µM (active)

NC1=NC(=O)/C(=C/c2cn(CCC(=O)O)nc2-c2ccc(Cl)cc2)S1
IC50 [23]: 4.92 µM (active)
IC50 [12]: 44.7 µM (active)
IC50 [13]: > 100 µM (inactive)
IC50 (Prothrombin): 40.4 µM (active)

COC(=O)C1C(=O)c2c([nH]c(C(=O)OCCSC)c2C)CC1C (stereo not given)
EC50 [14]: 1.34 µM (active)
EC50 [24]: < 0.1 µM (active)
EC50 [15]: 21.5 µM (active)
EC50 (H4): 31.9 µM (active)
EC50 [16]: 0.963 µM (active)
EC50 [17]: > 12 µM (not active)
